Legend:
male mice of OF1 strain [1] = test: Behavioral sensitization to morphine (locomotor activity on D15 after morphine injection); type: in vivo
Method: The locomotor activity is influenced by a wide diversity of factors.
The experimental protocol used may be described in the following manner:
Dose of amisulpride (AMS): 0.5 mg/kg Dose of buprenorphine (Bup): 0.1 mg/kg
The animals received from D1 to D7 either morphine or physiological saline, from Day D8 to D14 either physiological saline, or buprenorphine, amisulpride, buprenorphine and amisulpride according to the scheme:

male mice of OF1 strain [2] = test: Measurement of locomotor activity: determination of the doses of amisulpride; type: in vivo
Method: The animals used in this study are male mice of OF1 strain weighing about 20 g at the start of the experiments (Charles River, France). They live in an environment whose daily lighting cycle (07:30h; 17:30h) is constant throughout the year, and the temperature is maintained at about 22° C. The mice have free access to water and food, and the experiments are performed in accordance with the international rules on ethics in animal experimentation.
The mice are placed individually in a sound-insulated plastic cage ([…]) and are exposed to a light intensity of 5 lux. The animals' movements are captured by photoelectric cells for 60 minutes and recorded by computer. The experiment starts immediately after injection of the product. In this study, the term “locomotor activity” takes into account only the horizontal movements of the animals.
A one-factor (treatment) analysis of variance (ANOVA) is used for all the behavioral tests performed, followed by a Student-Newman-Keuls test if p<0.05 in the ANOVA. In all the cases, the significance is accepted once p<0.05.
A molecule endowed with dopaminergic antagonist activity reduces locomotor activity. It is this property that is exploited in order to determine the dose after which amisulpride has dopaminergic antagonist activity in mice (i.e. an effect on the D2 and D3 post-synaptic receptors, and not on the D2 and D3 auto-receptors). […]

CCN1CCCC1CNC(=O)c1cc(S(=O)(=O)CC)c(N)cc1OC (stereo not shown) [amisulpride]
reduction of the behavioral sensitization to morphine (male mice of OF1 strain [1]; morphine D1 to D7, treatment between D8 and D14 (amisulpride 0.5 mg/kg, buprenorphine 0.1 mg/kg), morphine 10 mg/kg on D15): does not make it possible to reduce this behavioral sensitization
effect on locomotor activity at low dose (male mice of OF1 strain [2]; 0.5 mg/kg): locomotor hyperactivity is observed
dose at and above which the decrease in locomotor activity is significant (male mice of OF1 strain [2]; doses tested 0.5, 2, 10, 20 and 50 mg/kg, horizontal movements over 60 minutes): ≥ 10 mg/kg

CN1CC[C@]23c4c5ccc(O)c4O[C@H]2[C@@H](O)C=C[C@H]3[C@H]1C5 [morphine]
behavioral sensitization on D15 relative to animals chronically treated with saline (male mice of OF1 strain [1]; mice chronically treated D1 to D7, locomotor activity on D15 after morphine 10 mg/kg): show behavioral sensitization

— patent US20110039834A1, “NOVEL PHARMACEUTICAL COMPOSITIONS FOR OPTIMIZING SUBSTITUTION TREATMENTS AND EXTENDING THE PHARMACOPOEIA TO GLOBAL TREATMENT OF ADDICTIONS” (TRIMARAN LIMITED, priority 2006, published 2011)
